Reference: ChEMBL document CHEMBL3046398, “Synthesis and Antifungal Activities of Furoxan Derivatives Designed as Novel Fungicide” (1998)

Experiments:
Format in all cases: functional
[1] = test system: Phytophthora infestans; experiment: Fungicidal activity against Phytophthora infestans at 250 ppm relative to control
[2] = test system: Botrytis cinerea; experiment: Fungicidal activity against Botryotinia fuckeliana at 250 ppm relative to control
[3] = test system: Blumeria graminis; experiment: Fungicidal activity against Blumeria graminis at 250 ppm relative to control
[4] = test system: Pyricularia oryzae; experiment: Fungicidal activity against Magnaporthe oryzae at 250 ppm relative to control
[5] = test system: Rhizoctonia solani; experiment: Fungicidal activity against Rhizoctonia solani at 250 ppm relative to control
[6] = test system: Puccinia recondita; experiment: Fungicidal activity against Puccinia recondita at 250 ppm relative to control

## Cc1c(/C=N/Nc2ccc(Cl)cc2)no[n+]1[O-]
[1]
  Activity: 45%
[2]
  Activity: 71%
[3]
  Activity: 34%
[4]
  Activity: 0%
[5]
  Activity: 37%
[6]
  Activity: 67%

## [O-][n+]1onc(-c2ccccc2Cl)c1-c1ccccc1Cl [3,4-DI-(2-CHLOROPHENYL)FUROXAN]
[1]
  Activity: 20%
[2]
  Activity: 0%
[3]
  Activity: 33%
[4]
  Activity: 13%
[5]
  Activity: 26%
[6]
  Activity: 10%

## [O-][n+]1onc(-c2ccc(Cl)cc2)c1-c1ccc(Cl)cc1 [3,4-DI(4-CHLOROPHENYL)FUROXAN]
[1]
  Activity: 28%
[2]
  Activity: 30%
[3]
  Activity: 9%
[4]
  Activity: 14%
[5]
  Activity: 35%
[6]
  Activity: 87%

## Cc1c(C(O)c2ccc(Cl)cc2)no[n+]1[O-] (stereo not given) [4-[(4-CHLOROPHENYL)HYDROXYMETHYL]-3-METHYLFUROXAN]
[1]
  Activity: 20%
[2]
  Activity: 25%
[3]
  Activity: 39%
[4]
  Activity: 0%
[5]
  Activity: 0%
[6]
  Activity: 0%

## [O-][n+]1onc(-c2ccc3ccccc3c2)c1-c1ccc2ccccc2c1 [3,4-DI(2-NAPHTHYL)FUROXAN]
[1]
  Activity: 14%
[2]
  Activity: 51%
[3]
  Activity: 73%
[4]
  Activity: 60%
[5]
  Activity: 10%
[6]
  Activity: 0%

## Cc1c(/C=N/c2ccc(Cl)cc2)no[n+]1[O-]
[1]
  Activity: 77%
[2]
  Activity: 52%
[3]
  Activity: 53%
[4]
  Activity: 29%
[5]
  Activity: 0%
[6]
  Activity: 67%

## [O-][n+]1onc(-c2cccnc2Cl)c1-c1cccnc1Cl [3,4-DI-(2-CHLOROPYRIDIN-3-YL)FUROXAN]
[1]
  Activity: 27%
[2]
  Activity: 0%
[3]
  Activity: 0%
[4]
  Activity: 19%
[5]
  Activity: 11%
[6]
  Activity: 10%

## [O-][n+]1onc(-c2c(Cl)cccc2Cl)c1-c1c(Cl)cccc1Cl [3,4-DI-(2,6-DICHLOROPHENYL)FUROXAN]
[1]
  Activity: 27%
[2]
  Activity: 0%
[3]
  Activity: 0%
[4]
  Activity: 41%
[5]
  Activity: 0%
[6]
  Activity: 0%

## COc1ccc(C(O)c2no[n+]([O-])c2C)cc1 (stereo not given) [4-[HYDROXY(4-METHOXYPHENYL)METHYL]-3-METHYLFUROXAN]
[1]
  Activity: 19%
[2]
  Activity: 17%
[3]
  Activity: 0%
[4]
  Activity: 4%
[5]
  Activity: 5%
[6]
  Activity: 0%

## [O-][n+]1onc(-c2ccccc2C(F)(F)F)c1-c1ccccc1C(F)(F)F [3,4-DI-(2-(TRIFLUOROMETHYL)PHENYL)FUROXAN]
[1]
  Activity: 0%
[2]
  Activity: 2%
[3]
  Activity: 14%
[4]
  Activity: 0%
[5]
  Activity: 6%
[6]
  Activity: 0%

## Cc1c(/C=N/c2ccccc2)no[n+]1[O-]
[1]
  Activity: 73%
[2]
  Activity: 62%
[3]
  Activity: 15%
[4]
  Activity: 7%
[5]
  Activity: 5%
[6]
  Activity: 17%

## Cc1c(C(c2ccc(Cl)cc2)n2cncn2)no[n+]1[O-] (stereo not given) [4-[(4-CHLOROPHENYL)(1,2,4-TRIAZOL-1-YL)METHYL]-3-METHYLFUROXAN]
[1]
  Activity: 37%
[2]
  Activity: 0%
[3]
  Activity: 25%
[4]
  Activity: 16%
[5]
  Activity: 0%
[6]
  Activity: 0%

## [O-][n+]1onc(-c2ccccc2F)c1-c1ccccc1F [3,4-DI-(2-FLUOROPHENYL)FUROXAN]
[1]
  Activity: 0%
[2]
  Activity: 0%
[3]
  Activity: 0%
[4]
  Activity: 6%
[5]
  Activity: 0%
[6]
  Activity: 0%

## Cc1ccc(-c2no[n+]([O-])c2-c2ccc(C)s2)s1 [3,4-DI-(5-METHYLTHIOPHEN-2-YL)FUROXAN]
[1]
  Activity: 33%
[2]
  Activity: 0%
[3]
  Activity: 17%
[4]
  Activity: 38%
[5]
  Activity: 5%
[6]
  Activity: 0%

## Cc1ccc(/N=C/c2no[n+]([O-])c2C)cc1C
[1]
  Activity: 53%
[2]
  Activity: 33%
[3]
  Activity: 21%
[4]
  Activity: 11%
[5]
  Activity: 24%
[6]
  Activity: 0%

## [O-][n+]1onc(-c2ccc(C(F)(F)F)cc2)c1-c1ccc(C(F)(F)F)cc1 [3,4-DI-(4-(TRIFLUOROMETHYL)PHENYL)FUROXAN]
[1]
  Activity: 53%
[2]
  Activity: 0%
[3]
  Activity: 17%
[4]
  Activity: 6%
[5]
  Activity: 11%
[6]
  Activity: 0%

## [O-][n+]1onc(-c2ccc(Cl)cc2Cl)c1-c1ccc(Cl)cc1Cl [3,4-DI-(2,4-DICHLOROPHENYL)FUROXAN]
[1]
  Activity: 7%
[2]
  Activity: 0%
[3]
  Activity: 0%
[4]
  Activity: 38%
[5]
  Activity: 16%
[6]
  Activity: 0%

## Cc1c(/C=N/Nc2ccccc2)no[n+]1[O-]
[1]
  Activity: 36%
[2]
  Activity: 43%
[3]
  Activity: 53%
[4]
  Activity: 21%
[5]
  Activity: 0%
[6]
  Activity: 60%

## Cc1c(C(Cl)c2ccc(Cl)cc2)no[n+]1[O-] (stereo not given) [4-[CHLORO(4-CHLOROPHENYL)METHYL]-3-METHYLFUROXAN]
[1]
  Activity: 0%
[2]
  Activity: 0%
[3]
  Activity: 8%
[4]
  Activity: 21%
[5]
  Activity: 0%
[6]
  Activity: 0%

## Cc1c(Cn2cncn2)no[n+]1[O-] [3-METHYL-4-[(1,2,4-TRIAZOL-1-YL)METHYL]FUROXAN]
[1]
  Activity: 11%
[2]
  Activity: 8%
[3]
  Activity: 25%
[4]
  Activity: 4%
[5]
  Activity: 0%
[6]
  Activity: 0%
